From patent US5256682A, “Isoxazolylimidazole derivatives, process for their production and their use in pharmaceutical agents” (Schering Aktiengesellschaft, priority 1991, dated 1993)

Assay: Metabolic stability: % of test substance remaining after incubation with mouse liver homogenate
Assay type: in vitro ADME
Conditions: amount not catabolized, in % of the zero value; 120 minutes, 37° C., pH 7.3; NMRI mouse liver homogenate; HPLC; read-out: % Radical after incubation with mouse liver homogenate
Description: The stability of the compounds was measured as follows:
The test substance (1 μg/50 μl of ethanol) was adjusted with 750 μl of Krebs-Henseleit-Ringer phosphate buffer to pH 7.3 and brought together with 750 μl of a liver homogenate at room temperature and mixed. 250 μl of this batch was removed for zero-point determination and the batch was incubated at 37° C. with continuous movement in a water bath. Aliquot parts of 250 μl are removed after 120 minutes, extracted with 3 ml of diethyl ether after 5 minutes of shaking, then centrifuged for 10 minutes under cooling, frozen, the ether is decanted and dried in a dry nitrogen stream. The residue is dissolved in each case in 200 μl of ethanol and the solution is analyzed with HPLC. The liver used was obtained from NMRI mice and homogenized after removal immediate in 4 parts of a 0.25 molar sucrose solution in a Potter-Elvehjem mixer. The homogenate was then filtered through linen and diluted with the same sucrose solution to 1:10 (weight: volume). Aliquot parts of the solution were stored at -18° C.

Row | Compound | remaining at 2 h [%]
1 | CCc1nc(-c2ncn(-c3cccc(Oc4ccccc4)c3)c2C)no1 [A, 4-(5-ethyl-1,2,4-oxadiazol-3-yl)-5-methyl-1-(3-phenoxy-phenyl)-imidazole, reference compound] | 31
2 | CCc1cc(-c2ncn(-c3cccc(Oc4ccccc4)c3)c2C)on1 [B, 4-(3-Ethyl-isoxazol-5-yl)-5-methyl-1-(3-phenoxyphenyl)imidazole] | 95
3 | CCc1cc(-c2ncn(-c3cccc(Oc4ccccc4)c3)c2C)no1 [C, 4-(5-Ethyl-isoxazol-3-yl)-5-methyl-1-(3-phenoxyphenyl)imidazole] | 71
4 | COCc1cc(-c2ncn(-c3cccc(Oc4ccccc4)c3)c2C)on1 [D, 4-(3-Methoxymethyl-isoxazol-5-yl)-5-methyl-1-(3-phenoxyphenyl)-imidazole] | 100
